Source: patent publication US12054485B2, “Substituted imidazoquinolines” (BIONTECH SE, priority 2017, dated 2024)

Target: T1, human TLR8 (Homo sapiens, UniProt Q9NR97)
T1 construct: host or cells: HEK-Blue-hTLR8
T1 sequence (Q9NR97 27-1041): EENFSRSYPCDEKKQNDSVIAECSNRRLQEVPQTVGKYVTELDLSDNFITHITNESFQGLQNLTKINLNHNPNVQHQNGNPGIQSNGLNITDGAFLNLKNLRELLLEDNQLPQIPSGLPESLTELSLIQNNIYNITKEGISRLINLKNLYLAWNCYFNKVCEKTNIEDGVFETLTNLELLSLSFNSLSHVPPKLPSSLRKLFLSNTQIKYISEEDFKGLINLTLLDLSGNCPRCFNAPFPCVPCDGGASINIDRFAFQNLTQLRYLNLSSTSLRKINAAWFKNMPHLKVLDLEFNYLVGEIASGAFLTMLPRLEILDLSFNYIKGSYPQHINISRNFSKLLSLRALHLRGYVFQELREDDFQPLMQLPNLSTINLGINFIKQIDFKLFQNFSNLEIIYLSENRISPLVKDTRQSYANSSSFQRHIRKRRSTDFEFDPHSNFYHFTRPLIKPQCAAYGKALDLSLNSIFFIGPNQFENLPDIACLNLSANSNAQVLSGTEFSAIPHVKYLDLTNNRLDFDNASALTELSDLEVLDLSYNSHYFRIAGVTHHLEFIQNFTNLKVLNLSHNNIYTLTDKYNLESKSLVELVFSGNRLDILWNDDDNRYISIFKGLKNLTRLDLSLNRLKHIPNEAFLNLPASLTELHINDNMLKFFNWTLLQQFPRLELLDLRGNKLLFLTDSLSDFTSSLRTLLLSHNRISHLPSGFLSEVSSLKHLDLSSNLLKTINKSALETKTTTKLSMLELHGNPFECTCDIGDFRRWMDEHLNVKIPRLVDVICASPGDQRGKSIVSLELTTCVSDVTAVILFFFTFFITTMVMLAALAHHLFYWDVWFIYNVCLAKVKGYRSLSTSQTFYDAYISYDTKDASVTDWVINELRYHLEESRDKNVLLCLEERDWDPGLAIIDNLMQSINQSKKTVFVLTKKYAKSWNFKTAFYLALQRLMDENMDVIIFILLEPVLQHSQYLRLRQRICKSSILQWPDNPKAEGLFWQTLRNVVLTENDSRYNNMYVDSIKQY
Test: TLR8 reporter gene assay (HEK-Blue-hTLR8, NFkB/AP-1 inducible SEAP)
Type: cell-based
Method: 2) TLR Stimulation Assay:
Compounds are tested for stimulation of human TLR7 and TLR8, respectively, via reporter gene expression analyzed in a cell line stably transfected with human TLR7 and TLR8, respectively, and coexpressing an NFkB/AP-1 inducible SEAP reporter gene. Stimulation with a TLR ligand leads to NFkB/AP-1 activation and upregulation and secretion of SEAP, which can be measured in the supernatant with QuantiBlue™ detection system (InvivoGen).
Cell lines used were either HEK-Blue-hTLR7 (InvivoGen #hkb-htlr7) or HEK-Blue-hTLR8 (InvivoGen #hkb-htlr8). Cells were cultured following manufacturer's instructions. […]

## CCc1nc2c(N)nc3ccccc3c2n1CCCCN(C(C)=O)C1CCOCC1 [Example 1, N-(4-(4-Amino-2-ethyl-1H-imidazo[4,5-c]quinolin-1-yl)butyl)-N-(tetrahydro-2H-pyran-4-yl)acetamide]
  activity towards TLR8 in the TLR8 reporter gene assay: no activity
